Measured values taken from patent publication US6861405B2, “Compositions and methods relating to glucose metabolism, weight control, and food intake” (priority 2001, dated 2005).
“Also recorded” adds a separate entry of the source.

Key:
Kv1.3 = Kv1.3 (Homo sapiens, UniProt P22001); settings: cited from earlier work; for inhibition of Kv1.3 activity: therapeutic levels
[1] = therapeutic dosages; cited from earlier work
ob/ob mice [2] = experiment: Insulin sensitivity (blood glucose after IP human insulin) in non-fasting ob/ob mice given toxin; format: in vivo, mouse; settings: for insulin sensitivity: non-fasting ob/ob mice, toxin IP 30 minutes before insulin
Experimental: Non-fasting ob/ob (obese) mice (n=5), were given margatoxin 30 minutes prior to study as described elsewhere herein. Age-matched control ob/ob mice were sham injected with PBS. Both groups were given human insulin and blood glucose levels were monitored as described previously.
Non-fasting ob/ob (obese) mice (n=5), were given kaliotoxin (Alomone, Israel) 30 minutes prior to study as described elsewhere herein. Age-matched control ob/ob mice were sham injected with PBS. Both groups were given human insulin and blood glucose levels were monitored as described previously.

Kv1.1 = Kv1.1 (Homo sapiens, UniProt Q09470); settings: cited from earlier work
Chain of Kv1.1 (Q09470 whole entry): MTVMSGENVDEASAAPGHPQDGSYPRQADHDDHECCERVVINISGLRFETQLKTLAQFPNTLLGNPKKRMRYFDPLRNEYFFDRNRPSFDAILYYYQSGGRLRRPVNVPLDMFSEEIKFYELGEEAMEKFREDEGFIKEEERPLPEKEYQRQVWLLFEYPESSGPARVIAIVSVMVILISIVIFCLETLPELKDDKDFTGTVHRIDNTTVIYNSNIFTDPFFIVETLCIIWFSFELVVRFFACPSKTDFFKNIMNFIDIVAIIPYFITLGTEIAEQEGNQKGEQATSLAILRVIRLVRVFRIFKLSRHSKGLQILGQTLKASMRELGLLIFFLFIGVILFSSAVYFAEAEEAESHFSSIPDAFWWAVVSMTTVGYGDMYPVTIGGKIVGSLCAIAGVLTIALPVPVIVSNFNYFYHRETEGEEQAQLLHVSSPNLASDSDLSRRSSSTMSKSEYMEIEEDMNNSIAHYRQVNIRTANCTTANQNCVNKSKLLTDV

Kv1.2 = Kv1.2 (Homo sapiens, UniProt P16389); settings: cited from earlier work
Chain of Kv1.2 (P16389 whole entry): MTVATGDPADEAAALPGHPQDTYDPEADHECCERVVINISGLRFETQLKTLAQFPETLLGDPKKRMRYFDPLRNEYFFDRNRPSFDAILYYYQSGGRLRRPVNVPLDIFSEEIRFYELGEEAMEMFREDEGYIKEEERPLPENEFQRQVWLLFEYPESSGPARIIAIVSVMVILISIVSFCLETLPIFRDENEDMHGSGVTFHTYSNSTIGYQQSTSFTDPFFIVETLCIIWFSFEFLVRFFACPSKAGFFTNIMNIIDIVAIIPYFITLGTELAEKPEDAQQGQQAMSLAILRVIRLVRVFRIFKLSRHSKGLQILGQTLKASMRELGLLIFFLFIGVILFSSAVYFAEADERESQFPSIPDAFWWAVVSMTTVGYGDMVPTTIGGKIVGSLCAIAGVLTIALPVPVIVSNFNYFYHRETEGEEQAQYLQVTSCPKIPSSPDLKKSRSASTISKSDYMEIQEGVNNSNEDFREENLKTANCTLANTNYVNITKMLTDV

C57BL/6 mice = experiment: Insulin sensitivity (blood glucose after IP human insulin) in wild type C57BL/6 mice given margatoxin; format: in vivo, mouse
Experimental: Plasma insulin levels and insulin sensitivity: Seven-week old C57BL6/6J male mice (n=5) were given 0.1 μg/gram body weight margatoxin 20 hours prior to study via IP injection. Controls (n=5) were sham injected with phosphate buffered saline (PBS). Two hours prior to study a second injection of margatoxin was administered to the treated experimental group. At t=0, both groups received human insulin as described previously. Blood glucose measurements were performed at the times indicated.

db/db mice = experiment: Insulin sensitivity (blood glucose after IP human insulin) in fasting db/db mice given margatoxin; format: in vivo, mouse
Experimental: Fasting db/db (diabetic) mice (n=5), were given margatoxin 30 minutes prior to study as described elsewhere herein. Age-matched control db/db mice were sham injected with PBS. Both groups were given human insulin and blood glucose levels were monitored as described previously.

ob/ob mice [3] = experiment: Long-term pharmacological inhibition of Kv1.3 in ob/ob mice: food consumption and body weight; format: in vivo, mouse
Experimental: Long-term pharmacological inhibition of Kv1.3: Ob/ob mice were injected intraperitoneally with margatoxin or PBS (n=5 for each group) on days 0, 5, and 16 as described herein. Food consumption was monitored for 30 days, and weights were measured at the end of 30 days.

L6 cells = experiment: D-glucose uptake in L6 cells; format: cell-based, rat
Experimental: D-glucose uptake in L6 cells: L6 cells were maintained in Dulbecco's Modified Eagle's Medium (DMEM) containing 10% fetal bovine serum (FBS) and 1% penicillin-streptomycin in T-75 flasks at 37° C. and 5% CO2. To promote fusion into myotubules and quiescence, L6 cells were seeded onto 10 cm^2 flasks at a density of 3000 cells/cm^2 in DMEM containing 2% FBS. Myotube formation was determined by the percentage of nuclei in multinucleated cells. Glucose uptake assays were performed when 80-90% of the myoblasts fused into myotubes. Cells were serum starved for 3 hours in DMEM containing 0.2% bovine serum albumin, washed twice in PBS with 0.1 mM CaCl2, 0.1 MgCl2, 10 mM HEPES, pH 7.4. […] 2-deoxy-(^3H)D-glucose (1 μCi/ml, 10 μM/liter) uptake was measured in triplicate over a 10 minute period. The reaction was terminated by washing with ice-cold PBS. Non-specific uptake was determined by adding 10 mM phloretin and was subtracted from total uptake. Cells were lysed in 0.1 N KOH, and glucose uptake was measured by liquid scintillation (Packard BioScience, Meriden Conn.). […] was measured by Bradford Assay.

Chain of Kv1.3 (P22001 whole entry): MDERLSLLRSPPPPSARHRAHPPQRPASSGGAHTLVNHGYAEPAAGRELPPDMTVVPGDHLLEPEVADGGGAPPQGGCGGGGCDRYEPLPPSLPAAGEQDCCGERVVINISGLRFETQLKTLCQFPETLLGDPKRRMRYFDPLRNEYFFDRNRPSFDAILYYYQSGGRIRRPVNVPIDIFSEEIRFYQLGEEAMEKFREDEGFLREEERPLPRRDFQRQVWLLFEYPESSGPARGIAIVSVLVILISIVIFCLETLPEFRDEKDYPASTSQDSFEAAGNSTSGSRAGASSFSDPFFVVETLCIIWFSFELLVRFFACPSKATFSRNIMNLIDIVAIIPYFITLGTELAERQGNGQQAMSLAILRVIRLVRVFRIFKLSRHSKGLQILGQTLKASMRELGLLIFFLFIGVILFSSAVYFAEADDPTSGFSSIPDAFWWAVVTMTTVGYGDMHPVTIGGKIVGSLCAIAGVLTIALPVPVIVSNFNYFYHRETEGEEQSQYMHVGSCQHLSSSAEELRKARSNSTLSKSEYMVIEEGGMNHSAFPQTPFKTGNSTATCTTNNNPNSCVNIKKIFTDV

Q: With `CNCCC(Oc1ccc(C(F)(F)F)cc1)c1ccccc1` (stereo not drawn) [fluxetine] as the molecule, how does the “inhibition of Kv1.3 activity” value (Kv1.3) read?
A: The value was “inhibit Kv1.3 activity”.

Q: What about the insulin sensitivity [1] of the same molecule?
A: The insulin sensitivity was “increase insulin sensitivity”.

Q: For `COc1ccc(CCN(C)CCCC(C#N)(c2ccc(OC)c(OC)c2)C(C)C)cc1OC` (stereo not drawn) [verapamil], which “inhibition of Kv1.3 activity” value (Kv1.3) is on record?
A: Its value is “inhibit Kv1.3 activity”.

Q: What about the insulin sensitivity [1] of the same molecule?
A: Its insulin sensitivity is “increase insulin sensitivity”.

Q: Which IC50 (Kv1.3) does the source give for kaliotoxin here?
A: The IC50 was 0.6 nM.

Q: And the “blood glucose, toxin and insulin vs insulin only” value (ob/ob mice [2]; animals treated with kaliotoxin and insulin)?
A: The value was “significantly lower blood glucose”.

Q: And the insulin sensitivity (ob/ob mice [2]; vs PBS)?
A: Its insulin sensitivity is “significantly increased insulin sensitivity”.

Q: What about the IC50 (Kv1.1) of the same molecule?
A: Its IC50 is 40 nM.

Q: What about the “inhibition of Kv1.2” value (Kv1.2) of the same molecule?
A: Its value is “but not Kv1.2”.

Q: Which insulin sensitivity (C57BL/6 mice; C57BL/6 mice, 0.1 μg/gram margatoxin IP, vs sham (PBS) injected controls) does the source give for “margatoxin (TIINVKCTSPKQCLPPCKAQFGQSAGAKCMNGKCKCYPH)” here?
A: Its insulin sensitivity is “increased insulin sensitivity”.

Q: And the fasting blood glucose (C57BL/6 mice; wild type C57BL/6 mice, margatoxin injection prior to study, vs PBS)?
A: Its fasting blood glucose is “lower fasting blood glucose”.

Q: What about the “blood glucose in response to insulin” value (C57BL/6 mice; wild type C57BL/6 mice, toxin-treated vs PBS) of the same molecule?
A: The value was “significantly lower blood glucose in response to insulin”.

Q: And the “fall in blood glucose of mice receiving insulin” value (db/db mice; db/db mice, margatoxin and insulin vs PBS and insulin)?
A: The value was “significantly greater fall in blood glucose”.

Q: And the “time at which difference in glucose levels was evident” value (db/db mice; db/db mice, margatoxin vs PBS)?
A: The value was no more than 30 min.

Q: And the “time for which difference in glucose levels persisted” value (db/db mice; db/db mice, margatoxin vs PBS)?
A: Its value is “up to 4.5 hours”.

Q: What about the sensitivity to insulin (db/db mice; fasting db/db mice, margatoxin IP 30 minutes before insulin, vs PBS) of the same molecule?
A: Its sensitivity to insulin is “significant increase in sensitivity to insulin”.

Q: And the “inhibition of Kv1.3” value (Kv1.3)?
A: The value was “fairly specific and potent inhibitor of Kv1.3”.

Q: What about the insulin sensitivity (ob/ob mice [2]; vs PBS) of the same molecule?
A: Its insulin sensitivity is “significantly increased insulin sensitivity; also recorded: significantly more sensitive to insulin”.

Q: And the “time after insulin at which difference in glucose level was evident” value (ob/ob mice [2]; ob/ob mice, margatoxin vs PBS)?
A: The value was no more than 30 min.

Q: What about the “time for which difference in glucose level persisted” value (ob/ob mice [2]; ob/ob mice, margatoxin vs PBS) of the same molecule?
A: The value was “at least 3 hours”.

Q: And the “fall in blood glucose in response to insulin administration, greater than in control mice” value (ob/ob mice [2]; ob/ob mice, single injection of margatoxin, vs PBS)?
A: The value was 50%.

Q: What about the “body weight vs controls” value (ob/ob mice [3]; ob/ob mice treated long term with margatoxin, IP days 0, 5, 16) of the same molecule?
A: Its value is “weighed significantly less than controls”.

Q: And the “body weight after margatoxin treatment ceased at day 16” value (ob/ob mice [3]; ob/ob mice, weights assessed to day 36)?
A: The value was “began to gain weight thereafter”.

Q: And the “glucose uptake in L6 cells, margatoxin together with insulin” value (L6 cells; 200 nM insulin and 250 nM margatoxin, vs either alone or neither)?
A: Its value is “significantly increased glucose uptake; also recorded: additive to that of insulin”.

Q: And the “glucose uptake in L6 cells” value (L6 cells; 2-deoxy-D-glucose, phloretin-sensitive uptake, 0.2-250 nM margatoxin)?
A: The value was “increases uptake of glucose in L6 cells in a dose dependent manner; also recorded: significant increase in phloretin-sensitive glucose uptake”.

Q: And the EC50 (L6 cells; L6 cells, read-out: concentration necessary for 1/2 maximal increase in glucose uptake)?
A: The EC50 was 53 nM.

Q: What about the “inhibition of Kv1.2” value (Kv1.2) of the same molecule?
A: The value was “also blocks Kv1.2”.
